The text below walks through data of patent US20240158348A1, “HERBICIDAL CYCLIC AMIDES N-SUBSTITUTED WITH A HALOALKYLSULFONYLANILIDE GROUP” (FMC Corporation, priority 2021, published 2024).

What all share (type): in vivo
The subject of test [1] is soybean (Glycine max). The experiment in a line: Test A preemergence, soybean. The following applies: 0 to 100 scale, 10 days. From the text:
(§1) Seeds of plant species selected from barnyardgrass (Echinochloa crus-galli), blackgrass (Alopecurus myosuroides), corn (Zea mays), foxtail, giant (giant foxtail, Setaria faberi), goosegrass (Eleusine indica), kochia (Bassia scoparia), oat, wild (wild oat, Avena fatua), pigweed, palmer (palmer amaranth, Amaranthus palmeri), pigweed, redroot (redroot pigweed, Amaranthus retroflexus), ragweed (common ragweed, Ambrosia artemisiifolia), ryegrass, Italian (Italian ryegrass, Lolium multiflorum), soybean (Glycine max), and wheat (Triticum aestivum) were planted into a blend of loam soil and sand and treated preemergence with a directed soil spray using test chemicals formulated in a non-phytotoxic solvent mixture which included a surfactant.
(§2) At the same time, plants selected from these crop and weed species and also galium (catchweed bedstraw, Galium aparine) and horseweed (Erigeron canadensis) were planted in pots containing the same blend of loam soil and sand and treated with postemergence applications of test chemicals formulated in the same manner. Plants ranged in height from 2 to 10 cm and were in the one- to two-leaf stage for the postemergence treatment. Treated plants and untreated controls were maintained in a greenhouse for 10 days, after which time all treated plants were compared to untreated controls and visually evaluated for injury. Plant response ratings, summarized in Table A, are based on a 0 to 100 scale where 0 is no effect and 100 is complete control. A dash (-) response means no test result.

Test [2] relates to ragweed (common ragweed, Ambrosia artemisiifolia). The experiment in a line: Test A postemergence, ragweed. The following applies: post-emergence, 240 h, 0 to 100 scale, 10 days, read-out: Plant response rating, Ragweed; for pest or weed control at 31 g/ha: 31 g ai/ha; for pest or weed control at 125 g/ha: 125 g ai/ha.
Text: as §1, §2

Test [3] concerns foxtail, giant (giant foxtail, Setaria faberi). The experiment in a line: Test A postemergence, giant foxtail. To be noted: post-emergence, 240 h, 0 to 100 scale, 10 days, read-out: Plant response rating, Foxtail, Giant; for pest or weed control at 31 g/ha: 31 g ai/ha; for pest or weed control at 125 g/ha: 125 g ai/ha.
Text: as §1, §2

The test system is the same in test [4]. The experiment in a line: Test A preemergence, giant foxtail. To be noted: pre-emergence, 240 h, 0 to 100 scale, 10 days, read-out: Plant response rating, Foxtail, Giant; for pest or weed control at 31 g/ha: 31 g ai/ha; for pest or weed control at 125 g/ha: 125 g ai/ha.
Text: as §1, §2

The subject of test [5] is pigweed, palmer (palmer amaranth, Amaranthus palmeri). The experiment in a line: Test A postemergence, palmer amaranth. To be noted: 0 to 100 scale, 10 days.
Text: as §1, §2

The subject of test [6] is kochia (Bassia scoparia). The experiment in a line: Test A preemergence, kochia. To be noted: pre-emergence, 240 h, 0 to 100 scale, 10 days, read-out: Plant response rating, Kochia; for pest or weed control at 31 g/ha: 31 g ai/ha; for pest or weed control at 125 g/ha: 125 g ai/ha.
Text: as §1, §2

Test [7] concerns pigweed, palmer (palmer amaranth, Amaranthus palmeri). The experiment in a line: Test A preemergence, palmer amaranth. The following applies: 0 to 100 scale, 10 days.
Text: as §1, §2

The subject of test [8] is ryegrass, Italian (Italian ryegrass, Lolium multiflorum). The experiment in a line: Test A preemergence, Italian ryegrass. To be noted: pre-emergence, 240 h, 0 to 100 scale, 10 days, read-out: Plant response rating, Ryegrass, Italian; for pest or weed control at 31 g/ha: 31 g ai/ha; for pest or weed control at 125 g/ha: 125 g ai/ha.
Text: as §1, §2

For test [9], the system named is soybean (Glycine max). The experiment in a line: Test A postemergence, soybean. The following applies: 0 to 100 scale, 10 days.
Text: as §1, §2

Test [10] has as its system rice (Oryza sativa). The experiment in a line: Test B flooded paddy test, rice. To be noted: 250 g ai/ha, Flood, scale of 0 to 100 where 0 is no effect and 100 is complete control, visually evaluated after 10 to 14 days, read-out: Plant response rating, Rice. On the procedure: Plant species in the flooded paddy test selected from barnyardgrass (Echinochloa crusgalli), ducksalad (Heteranthera limosa), rice (Oryza sativa), and sedge, umbrella (small-flower umbrella sedge, Cyperus difformis) were grown to the 2-leaf stage for testing. At time of treatment, test pots were flooded to 3 cm above the soil surface, treated by application of test compounds directly to the paddy water, and then maintained at that water depth for the duration of the test. Treated plants and controls were maintained in a greenhouse for 10 to 14 days, after which time all species were compared to controls and visually evaluated. Plant response ratings, summarized in Table B, are based on a scale of 0 to 100 where 0 is no effect and 100 is complete control. A dash (-) response means no test result.

On to `Cc1cc(C)c(N2CCC(OC3CC3)C2=O)cc1NS(=O)(=O)C(F)(F)F` (stereo not drawn) [Compound 3, N-[5-[3-(cyclopropyloxy)-2-oxo-1-pyrrolidinyl]-2,4-dimethylphenyl]-1,1,1-trifluoromethanesulfonamide], for which the “Plant response rating, Soybean” value in [1] (31 g ai/ha) is recorded as 30; in test [1] (125 g ai/ha), 80; in test [9] (31 g ai/ha) it was 60; in test [9] (125 g ai/ha), 70. Moreover, the pest or weed control at 31 g/ha came to 80% in test [2]; 70% in [3]; 100% in test [4]; 100% in test [6]; 90% in test [8]. For the same compound, the pest or weed control at 125 g/ha in test [2] was 90%; in test [3] it was 90%; in test [4], 100%; in test [6], 100%; in test [8], 100%. Besides, the “Plant response rating, Pigweed, Palmer” value turned out to be 40 in [5] (31 g ai/ha), 60 in [5] (125 g ai/ha), 100 in [7] (31 g ai/ha) and 100 in test [7] (125 g ai/ha). Moreover, the plant injury at 250 g/ha in test [10] worked out at 50%.
For `Cc1cc(C)c(N2CCC(OC3CCCC3)C2=O)cc1NS(=O)(=O)C(F)(F)F` (stereo not drawn) [Compound 6, N-[5-[3-(cyclopentyloxy)-2-oxo-1-pyrrolidinyl]-2,4-dimethylphenyl]-1,1,1-trifluoromethanesulfonamide], the “Plant response rating, Soybean” value stood at 50 in test [1] (31 g ai/ha), 90 in [1] (125 g ai/ha), 70 in test [9] (31 g ai/ha) and 70 in test [9] (125 g ai/ha). For the same compound, the pest or weed control at 31 g/ha in [2] is 60%; in test [3], 10%; in [4] it was 100%; in [6], 30%; in test [8], 80%. For the same compound, the pest or weed control at 125 g/ha stood at 90% in test [2]; 60% in test [3]; 100% in test [4]; 90% in test [6]; 90% in test [8]. Besides, the “Plant response rating, Pigweed, Palmer” value in test [5] (31 g ai/ha) was found to be 50; in test [5] (125 g ai/ha), 60; in [7] (31 g ai/ha) it was 70; in test [7] (125 g ai/ha), 100. Besides, in test [10], the plant injury at 250 g/ha was 10%.
For the compound `C#CCOC1CCN(c2cc(NS(=O)(=O)C(F)(F)F)c(C)cc2C)C1=O` (stereo not drawn) [Compound 1, N-[2,4-dimethyl-5-[2-oxo-3-(2-propyn-1-yloxy)-1-pyrrolidinyl]phenyl]-1,1,1-trifluoromethanesulfonamide], the pest or weed control at 31 g/ha came to 60% in test [2]; 40% in test [3]; 90% in test [4]; 70% in [6]; 100% in test [8]. Further, the pest or weed control at 125 g/ha in test [2] worked out at 80%; in test [3] it was 60%; in [4], 100%; in test [6] it was 100%; in test [8], 100%. Moreover, the plant injury at 250 g/ha in test [10] turned out to be 30%.
`Cc1cc(C)c(N(COC(=O)C(C)(C)C)S(=O)(=O)C(F)(F)F)cc1N1CCC(OC2CCCC2)C1=O` (stereo not drawn) [Compound 5, [[5-[3-(cyclopentyloxy)-2-oxo-1-pyrrolidinyl]-2,4-dimethylphenyl][(trifluoromethyl)sulfonyl]amino]methyl 2,2-dimethylpropanoate]: the “Plant response rating, Soybean” value in test [1] (31 g ai/ha) worked out at 0; in test [1] (125 g ai/ha) it was 20; in test [9] (31 g ai/ha) it was 60; in test [9] (125 g ai/ha), 70. The pest or weed control at 31 g/ha in test [2] stood at 60%; in [3] it was 0%; in test [4], 0%; in test [6] it was 0%; in [8] it was 20%. In addition, the pest or weed control at 125 g/ha in [2] worked out at 80%; in test [3], 80%; in test [4], 50%; in test [6], 60%; in [8], 90%. In addition, the “Plant response rating, Pigweed, Palmer” value was 20 in test [5] (31 g ai/ha), 70 in [5] (125 g ai/ha), 10 in test [7] (31 g ai/ha) and 50 in test [7] (125 g ai/ha). The plant injury at 250 g/ha in test [10] is 0%.
Take `C=CCOC1CCN(c2cc(NS(=O)(=O)C(F)(F)F)c(C)cc2C)C1=O` (stereo not drawn) [Compound 2, N-[2,4-dimethyl-5-[2-oxo-3-(2-propen-1-yloxy)-1-pyrrolidinyl]phenyl]-1,1,1-trifluoromethanesulfonamide]: the pest or weed control at 31 g/ha worked out at 50% in test [2]; 30% in test [3]; 100% in [4]; 50% in test [6]; 90% in [8]. Moreover, the pest or weed control at 125 g/ha turned out to be 70% in test [2]; 50% in [3]; 100% in test [4]; 90% in [6]; 100% in test [8]. The plant injury at 250 g/ha in test [10] is 10%.
On to `Cc1cc(C)c(N(COC(=O)C(C)(C)C)S(=O)(=O)C(F)(F)F)cc1N1CCC(OC2CC2)C1=O` (stereo not drawn) [Compound 7, [[5-[3-(cyclopropyloxy)-2-oxo-1-pyrrolidinyl]-2,4-dimethylphenyl][(trifluoromethyl)sulfonyl]amino]methyl 2,2-dimethylpropanoate], for which the “Plant response rating, Soybean” value is given as 20 in test [1] (31 g ai/ha), 40 in test [1] (125 g ai/ha), 90 in test [9] (31 g ai/ha) and 90 in test [9] (125 g ai/ha). In addition, the pest or weed control at 31 g/ha in test [2] came out at 90%; in test [3], 60%; in test [4], 90%; in [6] it was 60%; in [8] it was 100%. Further, the pest or weed control at 125 g/ha came out at 90% in [2]; 90% in test [3]; 90% in test [4]; 100% in test [6]; 100% in [8]. Besides, the “Plant response rating, Pigweed, Palmer” value in test [5] (31 g ai/ha) turned out to be 30; in [5] (125 g ai/ha), 60; in test [7] (31 g ai/ha), 50; in test [7] (125 g ai/ha) it was 100. The plant injury at 250 g/ha in test [10] is 30%.
As to `Cc1cc(C)c(N2CCC(OC3CCC3)C2=O)cc1NS(=O)(=O)C(F)(F)F` (stereo not drawn) [Compound 4, N-[5-[3-(cyclobutyloxy)-2-oxo-1-pyrrolidinyl]-2,4-dimethylphenyl]-1,1,1-trifluoromethanesulfonamide], the “Plant response rating, Soybean” value in [1] (31 g ai/ha) turned out to be 70; in test [1] (125 g ai/ha), 100; in [9] (31 g ai/ha), 50; in test [9] (125 g ai/ha), 70. Further, the pest or weed control at 31 g/ha in test [2] turned out to be 70%; in test [3], 40%; in test [4], 100%; in test [6], 70%; in [8], 100%. Also, the pest or weed control at 125 g/ha in test [2] amounted to 90%; in test [3], 80%; in test [4], 100%; in test [6] it was 100%; in [8] it was 100%. Also, the “Plant response rating, Pigweed, Palmer” value is 60 in test [5] (31 g ai/ha), 90 in [5] (125 g ai/ha), 100 in test [7] (31 g ai/ha) and 100 in [7] (125 g ai/ha). Moreover, the plant injury at 250 g/ha in test [10] came to 0%.
